Where two headings read alike, the source gives them in different places.
Experiments:
[1] = test system: citrated normal human plasma; test: FVIIa/TF-initiated plasma clotting assay; conditions: ratio of clotting time with/without compound; final compound concentration 0.33 mM; thromboplastin (Innovin)
Protocol: The test compounds, 20 mM in DMSO, are diluted in citrated normal human plasma just before the analysis (1+19) and placed in the sample carousel. 55 μl sample (compound in plasma) is mixed with 55 μl of thromboplastin (Innovin, Dade) and incubated for 5 min. The clotting reaction is started by adding 55 μl of a 25-mM CaCl2 solution, yielding a final compound concentration of 0.33 mM. The clotting time is measured using an ACL 300 R coagulometer. The ratio between the clotting time in the presence and absence of test compound is used to quantify the anticoagulant efficiency.

TF/FVIIa = molecular target: T1, TF/FVIIa (Homo sapiens, UniProt P08709); test: FVIIa/TF amidolytic assay; format: biochemical; conditions: 10 nM FVIIa, 25 nM soluble TF, 1 mM S-2288
T1 construct: Single-chain FVII may be converted to two-chain FVIIa by factor Xa; 20 microliters of soluble TF (250 nM in buffer)
T1 sequence (P08709 61-212 limits assumed): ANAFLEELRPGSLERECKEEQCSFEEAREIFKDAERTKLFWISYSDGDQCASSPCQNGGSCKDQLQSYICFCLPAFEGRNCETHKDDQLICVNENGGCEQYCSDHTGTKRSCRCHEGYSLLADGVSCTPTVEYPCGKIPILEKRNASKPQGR
T1 sequence (P08709 213-466 limits assumed): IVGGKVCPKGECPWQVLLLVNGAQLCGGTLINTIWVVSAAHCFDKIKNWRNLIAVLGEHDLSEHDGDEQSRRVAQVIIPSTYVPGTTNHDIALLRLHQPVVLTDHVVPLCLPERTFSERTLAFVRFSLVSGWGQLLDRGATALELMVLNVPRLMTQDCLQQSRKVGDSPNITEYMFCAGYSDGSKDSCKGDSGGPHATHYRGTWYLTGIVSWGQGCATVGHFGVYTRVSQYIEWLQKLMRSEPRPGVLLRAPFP
Protocol: (§1) Compound solutions and buffer are the same as in the above FX activation assay. 150 microliters of FVIIa (13.3 nM in buffer), 20 microliters of soluble TF. (250 nM in buffer), 10 microliters of test compound (various concentrations in DMSO) and 20 microliters of substrate S-2288 (10 mM in water) is mixed in microtiter plate well. This gives final concentrations of FVII(a, TF and S-2288 of 10 nM, 25 nM and 1 mM, respectively. The absorbance at 405 nm is measured continuously for 20 minutes. The degree of inhibition is calculated from the slope of the absorbance curve compared to the curve obtained when using DMSO without test compound.
as §1, with “TF” for “TF.”, “DM80)” for “DMSO)”, “FVIIa,” for “FVII(a,”

[2] = molecular target: T2, FVIIa/TF-catalyzed activation of FX (Homo sapiens, UniProt P08709); test: FX activation assay (FVIIa/TF-catalyzed FX activation); format: biochemical
T2 construct: Single-chain FVII may be converted to two-chain FVIIa by factor Xa

FXa = FXa (Homo sapiens, UniProt P00742); test: FXa amidolytic assay; format: biochemical; conditions: 1 nM FXa, 1 mM S-2765; read-out: FX amidolytic IC50 FX
Protocol: (§2) Compound solutions and buffer are the same as in the above FX activation assay. 170 microliters of FXa (1.17 nM in buffer), 10 microliters of test compound (various concentrations in DMSO) and 20 microliters of substrate S-2765 (10 mM in water) is mixed in a microtiter plate well. This gives-final concentrations of FXa and S-2765 of 1 nM and 1 mM, respectively. The absorbance at 405 nm is measured continuously for 20 minutes. The degree of inhibition is calculated from the slope of the absorbance curve compared to the curve obtained when using DMSO without test compound.
as §2, with “gives final” for “gives-final”

[3] = molecular target: T3, FVIIa/TF-catalyzed activation of FX (Homo sapiens, UniProt P08709+P13726); test: FX activation assay (FVIIa/TF-catalyzed FX activation); format: biochemical; conditions: second part of table, Examples 14-22
T3 construct: Single-chain FVII may be converted to two-chain FVIIa by factor Xa

[4] = 100 pM FVIIa, 5 pM TF, 175 nM FX, FXa read with S-2765, read-out: TF/FVII/FX (FX activation) IC50 FXa
[5] = second part of table, Examples 14-22, read-out: IC50 (μM) FX activation by FVIIa/TF

T2 sequence (P13726 33-295, one chain of several, further chain): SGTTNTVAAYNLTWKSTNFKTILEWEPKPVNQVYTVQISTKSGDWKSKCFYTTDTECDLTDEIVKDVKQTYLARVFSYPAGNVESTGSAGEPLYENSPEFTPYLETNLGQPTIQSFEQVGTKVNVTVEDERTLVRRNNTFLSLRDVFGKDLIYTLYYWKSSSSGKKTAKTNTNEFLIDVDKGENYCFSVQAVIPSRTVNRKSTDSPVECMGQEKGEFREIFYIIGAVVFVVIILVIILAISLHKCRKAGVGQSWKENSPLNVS
FXa, sequence (P00742 41-179 limits assumed): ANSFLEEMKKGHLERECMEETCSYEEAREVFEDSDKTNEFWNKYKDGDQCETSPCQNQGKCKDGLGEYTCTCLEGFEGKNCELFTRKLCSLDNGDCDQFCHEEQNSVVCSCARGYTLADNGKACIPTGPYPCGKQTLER
FXa, sequence (P00742 235-488 limits assumed): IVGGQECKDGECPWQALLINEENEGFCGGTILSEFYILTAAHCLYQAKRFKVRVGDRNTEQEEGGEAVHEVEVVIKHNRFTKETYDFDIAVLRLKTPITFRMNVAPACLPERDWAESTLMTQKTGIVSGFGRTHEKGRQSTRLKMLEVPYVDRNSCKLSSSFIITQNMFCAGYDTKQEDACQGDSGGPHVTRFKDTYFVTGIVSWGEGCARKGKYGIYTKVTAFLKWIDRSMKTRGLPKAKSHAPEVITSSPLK
T3 sequence (P13726 33-295, one chain of several): as the sequence (P13726 33-295, one chain of several, further chain) above

SMILES | Clot ratio [1] | IC50 (TF/FVIIa) [µM] | IC50 [2, 4] [µM] | IC50 (FXa) [µM] | IC50 [2, 5] [µM] | IC50 [3] [µM]
N=c1n(CCN2CCCC2)c2ccccc2n1CC(O)COc1ccc(Cl)cc1 (stereo not drawn) [Example 5, 1-(4-Chloro-phenoxy)-3-[2-imino-3-(2-pyrrolidin-1-yl-ethyl)-2,3-dihydro-benzoimidazol-1-yl]-propan-2-ol] | >3 | > 200 | 18 | > 200 |  | 
CN(C)CCNCC(O)CN1CCn2c3c(c4cc(C5CCCCC5)ccc42)CCCC31 (stereo not drawn) [Example 6, 1-(8-Cyclohexyl-1,2,3a,4,5,6-hexahydro-pyrazino[3,2,1-jk]carbazol-3-yl)-3-(2-dimethylamino-ethylamino)-propan-2-ol] | >3 | > 200 | 17 | > 200 |  | 
COc1cccc(/C=N\Nc2nc(Nc3ccccc3)nc(Nc3ccc(C)cc3C)n2)c1O [Example 7, 2-{[4-(2,4-Dimethyl-phenylamino)-6-phenylamino-[1,3,5]triazin-2-yl]-hydrazonomethyl}-6-methoxy-phenol] | 1.03 | > 200 | 17 | > 200 |  | 
CN1CCN(CC(=O)N2CCn3c4c(c5cc(C6CCCCC6)ccc53)CCCC42)CC1 (stereo not drawn) [Example 8, 1-(8-Cyclohexyl-1,2,3a,4,5,6-hexahydro-pyrazino[3,2,1-jk]carbazol-3-yl)-2-(4-methyl-piperazin-1-yl)-ethanone] | 2.72 | > 200 | 14 | > 200 |  | 
CC(C)Cc1ccc(C(C)CNC(=N)C(C)c2ccc(CC(C)C)cc2)cc1 (stereo not drawn) [Example 9, 2-(4-Isobutyl-phenyl)-N-[2-(4-isobutyl-phenyl)-propyl]-propionamidine] | >3 | > 200 | 11 | > 200 |  | 
CCCCCCCCCCCCCCCCn1c2c(c(=N)c3c1CCC3)CCC2 [Example 10, 4-Hexadecyl-2,3,4,5,6,7-hexahydro-1H-4-aza-s-indacen-8-ylideneamine] | 2.84 | > 200 | 7.7 | > 200 |  | 
CCC(=C(c1ccc(OC)cc1)c1ccc(OC)cc1)c1cn(CC(O)CN2CCCC2)c2ccccc12 (stereo not drawn) [Example 11, 1-{3-[1-Ethyl-2,2-bis-(4-methoxy-phenyl)-vinyl]-indol-1-yl}-3-pyrrolidin-1-yl-propan-2-ol] | 1.64 | > 200 | 7.7 | > 200 |  | 
COc1ccc(/C=C2\c3ccccc3-c3ccc(C(=O)CCCCN4CCCCC4)cc32)cc1OC [Example 12, 1-[9-(3,4-Dimethoxy-benzylidene)-9H-fluoren-2-yl]-5-piperidin-1-yl-pentan-1-one] | 1.2 | > 200 | 7 | > 200 |  | 
CCCCCCCOc1ccc(/C(=N\C2CC(C)(C)NC(C)(C)C2)c2ccccc2)cc1 [Example 13, [(4-Heptyloxy-phenyl)-phenyl-methylene]-(2,2,6,6-tetramethylpiperidin-4-yl)-amine] | 2.06 | > 200 | 5.8 | > 200 |  | 
CCN(CC)CCCC(C)Nc1nc(/C=C/C=C/c2ccccc2)nc2cc(Cl)ccc12 (stereo not drawn) [Example 14, N-[7-chloro-2-(4-phenyl-buta-1,3-dienyl)-quinazolin-4-yl]-5-N,N-diethyl-aminopentane-2-amine] |  |  |  |  | < 20 | 
CCN(CC)CCCC(C)Nc1nc(C=Cc2ccc(Br)cc2Br)nc2cc(Cl)ccc12 (stereo not drawn) [Example 15, N4-{7-chloro-2-[2-(2,4-dibromo-phenyl)-vinyl]-quinazolin-4-yl}-N1,N1-diethyl-pentane-1,4-diamine] |  |  |  |  | < 20 | 
CCN(CC)CCCC(C)Nc1nc(/C=C/c2ccc(Br)cc2)nc2cc(Cl)ccc12 (stereo not drawn) [Example 16, N4-{2-[2-(4-bromo-phenyl)-vinyl]-7-chloro-quinazolin-4-yl}-N1,N1-diethyl-pentane-1,4-diamine] |  |  |  |  | < 20 | 
CN(C)CCCN(C)Cc1cn(Cc2ccc(Cl)c(Cl)c2)c2cc(Cl)c(OCc3ccccc3)cc12 [Example 17, N-[5-benzyloxy-6-chloro-1-(3,4-dichlorobenzyl)-1H-indol-3-ylmethyl]-N,N′N′-trimethylpropan-1,3-diamine] |  |  |  |  | < 20 | 
CN(C)C1CCN(Cc2c[nH]c3ccc(OCc4ccccc4)cc23)CC1 [Example 18, N-[5-benzyloxy-1H-indol-3-ylmethyl]-4-dimethylaminopiperidine] |  |  |  |  | < 20 | 
NC(CC(=O)NC(Cc1c[nH]c2ccccc12)C(=O)O)(P(=O)(O)O)P(=O)(O)O (stereo not drawn) [Example 19, 2-(3-amino-3,3-bis-phosphono-propionylamino)-3-(1H-indol-3-yl)-propionic acid] |  |  |  |  | < 20 | 
CN(C)CCCNC(=O)c1cc2cc(OCc3ccccc3)ccc2n1Cc1ccc(Cl)c(Cl)c1 [Example 20] |  |  |  |  | < 20 | 
CN(C)CCc1cn(Cc2ccc(Cl)c(Cl)c2)c2cc(Cl)c(OCc3ccccc3)cc12 [Example 21, N,N-dimethyl-1-(3,4-dichlorobenzyl)-5-benzyloxy-6-chlorotrypamine] |  |  |  |  |  | < 20
CCC(=C(c1ccc(OC)cc1)c1ccc(OC)cc1)c1cn(CC(O)CN2CCCC2)c2ccccc12 (stereo not drawn) [Example 22, 1-{3-[1-ethyl-2,2-bis-(4-methoxy-phenyl)-vinyl]-indol-1-yl}-3-pyrrolidin-1-yl-propan-2-ol] |  |  |  |  | < 20 | 
